Data taken from ChEMBL document CHEMBL3885881, “DrugMatrix”.

Organism: Rattus norvegicus
Assay: DrugMatrix - Regimen: Daily Repeat
Type: toxicity, organism-based, Sprague-Dawley
Design: regimen Daily Repeat, gender Male, age 6-8 weeks
Settings: in vivo, po, route oral GAVAGE, vehicle .5 % CMC; for ABSOLUTE BASOPHIL / ABSOLUTE EOSINOPHIL / ABSOLUTE LYMPHOCYTE / ABSOLUTE MONOCYTE / ABSOLUTE SEGMENTED NEUTROPHIL / BASOPHIL / EOSINOPHIL / ERYTHROCYTE COUNT / HEMATOCRIT / HEMOGLOBIN / LEUKOCYTE COUNT / LYMPHOCYTE / MEAN CORPUSCULAR HEMOGLOBIN / MEAN CORPUSCULAR HEMOGLOBIN CONCENTRATION / MEAN CORPUSCULAR VOLUME / MONOCYTE / NEUTROPHIL / NUCLEATED RED BLOOD CELLS / PLATELET COUNT: tissue Blood; for ALANINE AMINOTRANSFERASE / ALBUMIN / ALKALINE PHOSPHATASE / ASPARTATE AMINOTRANSFERASE / BLOOD UREA NITROGEN / CARBON DIOXIDE / CHLORIDE / CHOLESTEROL / CREATINE PHOSPHOKINASE / CREATININE / GLUCOSE / LACTATE DEHYDROGENASE / LIPASE / PHOSPHORUS / POTASSIUM / SODIUM / TOTAL BILIRUBIN / TOTAL PROTEIN / URIC ACID: tissue Plasma
[1] = 25 mg/kg, 72 h, dose level Low, time 3 day
[2] = 25 mg/kg, 120 h, dose level Low, time 5 day
[3] = 1500 mg/kg, 72 h, dose level High, time 3 day
[4] = 1500 mg/kg, 120 h, dose level High, time 5 day

Cc1ccc(S(=O)(=O)NC(=O)NN2CCCCCC2)cc1 [TOLAZAMIDE]
ABSOLUTE BASOPHIL [1]: 0 CELLS/uL | ABSOLUTE EOSINOPHIL [1]: 281.67 CELLS/uL | ABSOLUTE LYMPHOCYTE [1]: 14664 CELLS/uL | ABSOLUTE MONOCYTE [1]: 321 CELLS/uL | ABSOLUTE SEGMENTED NEUTROPHIL [1]: 2033.33 CELLS/uL | BASOPHIL [1]: 0% | EOSINOPHIL [1]: 1.67% | ERYTHROCYTE COUNT [1]: 5.23 x10E6/uL | HEMATOCRIT [1]: 32.97% | HEMOGLOBIN [1]: 12.7 G/DL | LEUKOCYTE COUNT [1]: 17.3 x10E3/uL | LYMPHOCYTE [1]: 85% | MEAN CORPUSCULAR HEMOGLOBIN [1]: 24.27 pg | MEAN CORPUSCULAR HEMOGLOBIN CONCENTRATION [1]: 38.53 G/DL | MEAN CORPUSCULAR VOLUME [1]: 63 fL | MONOCYTE [1]: 2% | NEUTROPHIL [1]: 11.33% | NUCLEATED RED BLOOD CELLS [1]: 0 /100WBC | PLATELET COUNT [1]: 1363.33 x10E3/uL | ALANINE AMINOTRANSFERASE [1]: 47.33 u/L | ALBUMIN [1]: 4.3 G/DL | ALKALINE PHOSPHATASE [1]: 373.67 u/L | ASPARTATE AMINOTRANSFERASE [1]: 73.33 u/L | BLOOD UREA NITROGEN [1]: 13.33 mg/dL | CARBON DIOXIDE [1]: 22 mmol/L | CHLORIDE [1]: 102.33 MEQ/L | CHOLESTEROL [1]: 62.67 mg/dL | CREATINE PHOSPHOKINASE [1]: 209.33 u/L | CREATININE [1]: 0.17 mg/dL | GLUCOSE [1]: 152.33 mg/dL | LACTATE DEHYDROGENASE [1]: 265 u/L | LIPASE [1]: 9 u/L | PHOSPHORUS [1]: 13.13 mg/dL | POTASSIUM [1]: 7.02 MEQ/L | SODIUM [1]: 143.5 MEQ/L | TOTAL BILIRUBIN [1]: 0.17 mg/dL | TOTAL PROTEIN [1]: 5.3 G/DL | URIC ACID [1]: 1.97 mg/dL | ABSOLUTE BASOPHIL [2]: 0 CELLS/uL | ABSOLUTE EOSINOPHIL [2]: 87.33 CELLS/uL | ABSOLUTE LYMPHOCYTE [2]: 13745 CELLS/uL | ABSOLUTE MONOCYTE [2]: 575.67 CELLS/uL | ABSOLUTE SEGMENTED NEUTROPHIL [2]: 1458.67 CELLS/uL | BASOPHIL [2]: 0% | EOSINOPHIL [2]: 0.67% | ERYTHROCYTE COUNT [2]: 6.16 x10E6/uL | HEMATOCRIT [2]: 38.13% | HEMOGLOBIN [2]: 13.9 G/DL | LEUKOCYTE COUNT [2]: 15.87 x10E3/uL | LYMPHOCYTE [2]: 86.67% | MEAN CORPUSCULAR HEMOGLOBIN [2]: 22.6 pg | MEAN CORPUSCULAR HEMOGLOBIN CONCENTRATION [2]: 36.47 G/DL | MEAN CORPUSCULAR VOLUME [2]: 61.93 fL | MONOCYTE [2]: 3.67% | NEUTROPHIL [2]: 9% | NUCLEATED RED BLOOD CELLS [2]: 0 /100WBC | PLATELET COUNT [2]: 1264.67 x10E3/uL | ALANINE AMINOTRANSFERASE [2]: 46.67 u/L | ALBUMIN [2]: 4.3 G/DL | ALKALINE PHOSPHATASE [2]: 296.33 u/L | ASPARTATE AMINOTRANSFERASE [2]: 92.67 u/L | BLOOD UREA NITROGEN [2]: 17.33 mg/dL | CARBON DIOXIDE [2]: 23.67 mmol/L | CHLORIDE [2]: 109.33 MEQ/L | CHOLESTEROL [2]: 61.67 mg/dL | CREATINE PHOSPHOKINASE [2]: 320 u/L | CREATININE [2]: 0.19 mg/dL | GLUCOSE [2]: 152.33 mg/dL | LACTATE DEHYDROGENASE [2]: 425.33 u/L | LIPASE [2]: 9 u/L | PHOSPHORUS [2]: 11.2 mg/dL | POTASSIUM [2]: 5.71 MEQ/L | SODIUM [2]: 148.83 MEQ/L | TOTAL BILIRUBIN [2]: 0.17 mg/dL | TOTAL PROTEIN [2]: 6.13 G/DL | URIC ACID [2]: 1.27 mg/dL | ABSOLUTE BASOPHIL [3]: 0 CELLS/uL | ABSOLUTE EOSINOPHIL [3]: 0 CELLS/uL | ABSOLUTE LYMPHOCYTE [3]: 13270.33 CELLS/uL | ABSOLUTE MONOCYTE [3]: 328.33 CELLS/uL | ABSOLUTE SEGMENTED NEUTROPHIL [3]: 801.33 CELLS/uL | BASOPHIL [3]: 0% | EOSINOPHIL [3]: 0% | ERYTHROCYTE COUNT [3]: 5.57 x10E6/uL | HEMATOCRIT [3]: 35.93% | HEMOGLOBIN [3]: 13.3 G/DL | LEUKOCYTE COUNT [3]: 14.4 x10E3/uL | LYMPHOCYTE [3]: 92% | MEAN CORPUSCULAR HEMOGLOBIN [3]: 23.9 pg | MEAN CORPUSCULAR HEMOGLOBIN CONCENTRATION [3]: 37.03 G/DL | MEAN CORPUSCULAR VOLUME [3]: 64.5 fL | MONOCYTE [3]: 2.33% | NEUTROPHIL [3]: 5.67% | NUCLEATED RED BLOOD CELLS [3]: 0 /100WBC | PLATELET COUNT [3]: 1235.33 x10E3/uL | ALANINE AMINOTRANSFERASE [3]: 26.33 u/L | ALBUMIN [3]: 4.3 G/DL | ALKALINE PHOSPHATASE [3]: 233.33 u/L | ASPARTATE AMINOTRANSFERASE [3]: 69 u/L | BLOOD UREA NITROGEN [3]: 17.67 mg/dL | CARBON DIOXIDE [3]: 25 mmol/L | CHLORIDE [3]: 106.33 MEQ/L | CHOLESTEROL [3]: 46.67 mg/dL | CREATINE PHOSPHOKINASE [3]: 172 u/L | CREATININE [3]: 0.18 mg/dL | GLUCOSE [3]: 142 mg/dL | LACTATE DEHYDROGENASE [3]: 80.67 u/L | LIPASE [3]: 8 u/L | PHOSPHORUS [3]: 9.5 mg/dL | POTASSIUM [3]: 5.38 MEQ/L | SODIUM [3]: 145.4 MEQ/L | TOTAL BILIRUBIN [3]: 0.27 mg/dL | TOTAL PROTEIN [3]: 5.8 G/DL | URIC ACID [3]: 1.07 mg/dL | ABSOLUTE BASOPHIL [4]: 0 CELLS/uL | ABSOLUTE EOSINOPHIL [4]: 47.67 CELLS/uL | ABSOLUTE LYMPHOCYTE [4]: 13177.33 CELLS/uL | ABSOLUTE MONOCYTE [4]: 515.33 CELLS/uL | ABSOLUTE SEGMENTED NEUTROPHIL [4]: 1493 CELLS/uL | BASOPHIL [4]: 0% | EOSINOPHIL [4]: 0.33% | ERYTHROCYTE COUNT [4]: 6.17 x10E6/uL | HEMATOCRIT [4]: 38.2% | HEMOGLOBIN [4]: 14.3 G/DL | LEUKOCYTE COUNT [4]: 15.23 x10E3/uL | LYMPHOCYTE [4]: 86.67% | MEAN CORPUSCULAR HEMOGLOBIN [4]: 23.2 pg | MEAN CORPUSCULAR HEMOGLOBIN CONCENTRATION [4]: 37.47 G/DL | MEAN CORPUSCULAR VOLUME [4]: 61.93 fL | MONOCYTE [4]: 3.33% | NEUTROPHIL [4]: 9.67% | NUCLEATED RED BLOOD CELLS [4]: 0 /100WBC | PLATELET COUNT [4]: 1206.33 x10E3/uL | ALANINE AMINOTRANSFERASE [4]: 28 u/L | ALBUMIN [4]: 4.7 G/DL | ALKALINE PHOSPHATASE [4]: 319.67 u/L | ASPARTATE AMINOTRANSFERASE [4]: 70.67 u/L | BLOOD UREA NITROGEN [4]: 19 mg/dL | CARBON DIOXIDE [4]: 25.33 mmol/L | CHLORIDE [4]: 105.33 MEQ/L | CHOLESTEROL [4]: 58.33 mg/dL | CREATINE PHOSPHOKINASE [4]: 168.67 u/L | CREATININE [4]: 0.2 mg/dL | GLUCOSE [4]: 138.67 mg/dL | LACTATE DEHYDROGENASE [4]: 114 u/L | LIPASE [4]: 9.33 u/L | PHOSPHORUS [4]: 13.07 mg/dL | POTASSIUM [4]: 6.1 MEQ/L | SODIUM [4]: 149.93 MEQ/L | TOTAL BILIRUBIN [4]: 0.2 mg/dL | TOTAL PROTEIN [4]: 6.57 G/DL | URIC ACID [4]: 2.17 mg/dL
